Data from US20230322735A1, “AZETIDINYL TRYPTAMINES AND METHODS OF TREATING PSYCHIATRIC DISORDERS” (priority 2020, published 2023).
Structures can show the parent of a compound that is named as a salt. Where two headings read alike, the source gives them in different places.

Key:
[1] = biological target: T1, 5-HT2A receptor (Homo sapiens, UniProt P28223); experiment: FLIPR Ca2+ flux agonist assay at 5-HT2A (HEK293); type: cell-based
T1 construct: host or cells: HEK293
Protocol: (§1) A solution of 250 mM probenecid in 1 mL FLIPR assay buffer was prepared fresh. This was combined with a fluorescent dye (Fluo-4 Direct™) to make a final assay concentration of 2.5 mM. […] The fluorescent dye was then added to the assay plate along with assay buffer to a final volume of 40 μL. The cell plate was incubated for 50 min at 37° C. and 5% CO2 and placed into the FLIPR Tetra along with the compound plate. 10 μL of references and compounds were then transferred from the compound plate into the cell plate and the fluorescent signal was read.

[2] = biological target: T2, 5-HT2B receptor (Homo sapiens, UniProt P41595); experiment: FLIPR Ca2+ flux agonist assay at 5-HT2B (HEK293); type: cell-based; details: for 5-HT2B % Act @ Max Dose: Ca2+ flux, agonist mode, HEK293
T2 construct: host or cells: HEK293
Protocol: as §1

[3] = biological target: T3, 5-HT1A receptor (Homo sapiens, UniProt P08908); experiment: FLIPR Ca2+ flux agonist assay at 5-HT1A (CHO cells); type: cell-based; details: for fold more potent at 5-HT1A than dimethyl (and methylethyl) counterparts: Ca2+ flux EC50 compared with DMT/MET, psilocin/4-HO-MET, 5-MeO-DMT; for 5-HT1A % Act @ Max Dose: Ca2+ flux, agonist mode, CHO cells
T3 construct: host or cells: CHO cells
T3 sequence (P08908 1-422): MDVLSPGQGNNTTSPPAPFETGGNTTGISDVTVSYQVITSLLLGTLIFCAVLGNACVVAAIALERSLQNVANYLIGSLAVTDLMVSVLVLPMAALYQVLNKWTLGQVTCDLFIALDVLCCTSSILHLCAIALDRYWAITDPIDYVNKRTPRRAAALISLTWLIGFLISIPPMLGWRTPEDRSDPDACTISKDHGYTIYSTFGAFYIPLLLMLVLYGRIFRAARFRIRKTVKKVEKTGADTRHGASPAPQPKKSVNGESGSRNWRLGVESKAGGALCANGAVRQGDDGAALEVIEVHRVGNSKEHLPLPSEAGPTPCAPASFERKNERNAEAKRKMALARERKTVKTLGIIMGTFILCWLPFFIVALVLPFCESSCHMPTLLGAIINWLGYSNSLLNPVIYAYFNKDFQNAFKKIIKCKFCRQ
Protocol: as §1

[4] = tested on: C57BL/6 mice; experiment: Head twitch response (HTR) in mice; type: in vivo, mouse; details: SC; for maximal effect in the HTR assay: maximum over doses tested
[5] = Stability in rat brain homogenate; details: for half-life at 1 μM: male, Sprague Dawley, rat, rat brain homogenate; for % Compound Remaining (after 120 min) / t1/2: rat brain homogenate (male Sprague Dawley), 1 μM, 37° C.
[6] = Stability in mouse brain homogenate; details: for half-life at 1 μM: male, CD-1, mouse, mouse brain homogenate; for % Compound Remaining (after 120 min) / t1/2: mouse brain homogenate (male CD-1), 1 μM, 37° C.
[7] = Metabolic stability in human liver microsomes (HLM); details: for half-life at 1 μM / microsomal CLint at 1 μM: both, human, pooled human liver microsomes, pH 7.4; for metabolic stability in HLM compared with dimethyl counterpart: vs DMT, psilocin, 5-MeO-DMT respectively; for t1/2: HLM, 1 μM test compound, 0.50 mg protein/mL, NADPH, 37° C., 60 min
[8] = Chemical stability of the product on storage and analysis; type: physicochemical; details: storage and handling
Protocol: Note: The product 2 is unstable and should be stored frozen, protected from light, and under inert gas. If stored properly, stability has been confirmed by qNMR for at least 1 month.
A mixture of 3-(2-(azetidin-1-yl)ethyl)-1H-indol-4-ol (2, 50 mg, 231.18 μmol, 1 eq) and pyridine (23.77 mg, 300.54 μmol, 24.26 μL, 1.3 eq) in DCM (1 mL) was cooled to 0° C. Then acetic anhydride (25.96 mg, 254.30 μmol, 23.82 μL, 1.1 eq) was added dropwise at 0° C. and the resulting mixture was stirred at 25° C. for 1 h. At this time, the solvent was removed and the residue was purified by prep-HPLC (column=Waters Xbridge BEH C18 (100*30 mm, 10 μm); mobile phase=water(NH4HCO3)-ACN, B %=5%-40%; 10 min run time) to provide 3-(2-(azetidin-1-yl)ethyl)-1H-indol-4-yl acetate (4) as a white solid (20 mg, 33% yield). ^1H NMR (400 MHz, DMSO-d6) δ 11.01 (br s, 1H), 7.22 (d, J=8.0 Hz, 1H), 7.11 (d, J=1.6 Hz, 1H), 7.02 (t, J=8.0 Hz, 1H), 6.64 (d, J=7.6 Hz, 1H), 3.09 (t, J=6.8 Hz, 4H), 2.57-2.54 (m, 4H), 2.32 (s, 3H), 1.96-1.90 (m, 2H); LCMS (RT=0.983 min, MS calc.: 258.14, [M+H]+=259.1).

[9] = Pro-drug conversion to Compound 2 after administration to an animal; type: in vivo; details: when administered to an animal, for example a human
[10] = biological target: T4, human 5-HT2C receptor (Homo sapiens, UniProt P28335); experiment: cell-based; details: Ca2+ flux, agonist mode
T4 sequence (P28335 33-458): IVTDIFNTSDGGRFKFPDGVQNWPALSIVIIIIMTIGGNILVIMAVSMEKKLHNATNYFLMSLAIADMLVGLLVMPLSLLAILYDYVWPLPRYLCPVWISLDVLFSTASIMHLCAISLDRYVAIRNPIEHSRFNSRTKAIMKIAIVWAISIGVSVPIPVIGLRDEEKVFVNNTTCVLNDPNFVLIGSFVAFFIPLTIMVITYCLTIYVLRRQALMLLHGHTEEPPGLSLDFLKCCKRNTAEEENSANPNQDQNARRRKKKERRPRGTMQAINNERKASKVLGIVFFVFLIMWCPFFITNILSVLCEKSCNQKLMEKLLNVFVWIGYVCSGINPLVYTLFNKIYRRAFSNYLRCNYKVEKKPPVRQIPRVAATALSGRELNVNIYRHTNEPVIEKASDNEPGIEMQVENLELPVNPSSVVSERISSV

[11] = Ca2+ flux, agonist mode, HEK293
[12] = Ca2+ flux, agonist mode, HEK293, read-out: 5-HT2A EC50

T2 sequence (P41595 whole entry): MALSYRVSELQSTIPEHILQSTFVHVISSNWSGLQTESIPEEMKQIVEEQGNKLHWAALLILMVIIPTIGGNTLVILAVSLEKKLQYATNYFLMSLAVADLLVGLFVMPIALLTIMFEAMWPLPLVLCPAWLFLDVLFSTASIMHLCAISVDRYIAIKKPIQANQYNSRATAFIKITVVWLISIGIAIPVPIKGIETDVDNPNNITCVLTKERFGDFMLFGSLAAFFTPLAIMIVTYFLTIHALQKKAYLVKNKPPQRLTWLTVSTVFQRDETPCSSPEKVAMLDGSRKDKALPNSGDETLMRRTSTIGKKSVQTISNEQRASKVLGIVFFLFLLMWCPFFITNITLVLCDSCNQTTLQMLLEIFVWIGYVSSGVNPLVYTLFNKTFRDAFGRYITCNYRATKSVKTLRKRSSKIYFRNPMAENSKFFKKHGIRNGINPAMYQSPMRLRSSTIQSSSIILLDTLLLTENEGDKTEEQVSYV
T1 sequence (P28223 whole entry): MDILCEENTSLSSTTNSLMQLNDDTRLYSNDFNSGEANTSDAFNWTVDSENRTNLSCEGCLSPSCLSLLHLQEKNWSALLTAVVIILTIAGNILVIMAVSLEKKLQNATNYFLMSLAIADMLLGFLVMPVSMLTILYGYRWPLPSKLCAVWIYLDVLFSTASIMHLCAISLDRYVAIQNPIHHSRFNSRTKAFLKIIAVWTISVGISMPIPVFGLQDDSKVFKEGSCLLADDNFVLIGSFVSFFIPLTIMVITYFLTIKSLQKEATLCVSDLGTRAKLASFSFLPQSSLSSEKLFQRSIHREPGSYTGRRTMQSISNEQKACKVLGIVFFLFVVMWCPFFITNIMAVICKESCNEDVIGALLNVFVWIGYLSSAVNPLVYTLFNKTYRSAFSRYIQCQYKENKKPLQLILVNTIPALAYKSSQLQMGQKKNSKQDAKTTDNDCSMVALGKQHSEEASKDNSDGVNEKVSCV

Row | SMILES | 5-HT2A % Act @ Max Dose [1, 11] | EC50 [2] | 5-HT2B % Act @ Max Dose [2] | EC50 [3] | 5-HT1A % Act @ Max Dose [3] | % Compound Remaining (after 120 min) [5] | % Compound Remaining (after 120 min) [6] | microsomal CLint at 1 μM [7] | t1/2 [5] | t1/2 [6] | t1/2 [7] | also measured
1 | c1ccc2c(CCN3CCC3)c[nH]c2c1 [Compound 1, 3-(2-(azetidin-1-yl)ethyl)-1H-indole fumarate] | 73.2% | 0.917 µM | 22.6% | 0.745 µM | 135% | 91.9% | 111.3% | 12.4 µL/min/mg |  |  |  | EC50 [1, 12]: 0.0904 µM; fold more potent at 5-HT1A than dimethyl (and methylethyl) counterparts [3]: > 50 fold; Average HTR Over 20-min Test ([4]; dose 0.1 mg/kg): 5.00; Average HTR Over 20-min Test ([4]; dose 1 mg/kg): 2.17; Average HTR Over 20-min Test ([4]; dose 10 mg/kg): 1.00; stability in rat brain homogenate (in words) [5]: good stability; half-life at 1 μM [5]: > 4.82 h; stability in mouse brain homogenate (in words) [6]: good stability; half-life at 1 μM [6]: > 4.82 h; half-life at 1 μM [7]: 1.86 h; metabolic stability in HLM compared with dimethyl counterpart [7]: greater metabolic stability
2 | COc1ccc2[nH]cc(CCN3CCC3)c2c1 [Compound 3, 3-(2-(azetidin-1-yl)ethyl)-5-methoxy-1H-indole fumarate] | 99.3% | 0.274 µM | 35.0% | 0.0211 µM | 112% | 98% | 103.1% | < 9.6 µL/min/mg |  |  |  | EC50 [1, 12]: 0.00715 µM; fold more potent at 5-HT1A than dimethyl (and methylethyl) counterparts [3]: > 10 fold; stability in rat brain homogenate (in words) [5]: good stability; half-life at 1 μM [5]: > 4.82 h; stability in mouse brain homogenate (in words) [6]: good stability; half-life at 1 μM [6]: > 4.82 h; half-life at 1 μM [7]: > 2.42 h; metabolic stability in HLM compared with dimethyl counterpart [7]: greater metabolic stability
3 | CC(=O)Oc1cccc2[nH]cc(CCN3CCC3)c12 [Compound 4, 3-(2-(azetidin-1-yl)ethyl)-1H-indol-4-yl acetate] |  |  |  |  |  |  |  |  |  |  |  | stability compared with Compound 2 [8]: more stable to oxidation than Compound 2; hydrolysis of the ester to Compound 2 as active metabolite [9]: rapidly hydrolyzed
4 | CCN(C)CCc1c[nH]c2cccc(O)c12 [Compound 4-HO-MET, 3-(2-(ethyl(methyl)amino)ethyl)-1H-indol-4-ol, reference compound] | 103% | > 10 µM | 1.09% | 14.7 µM | 73.0% |  |  |  |  |  |  | EC50 [1]: 0.0151 µM; Average HTR Over 20-min Test ([4]; dose 0.1 mg/kg): 9.50; Average HTR Over 20-min Test ([4]; dose 1 mg/kg): 20.83; Average HTR Over 20-min Test ([4]; dose 10 mg/kg): 11.33; maximal effect in the HTR assay [4]: 20.8 head twitches/20 min
5 | O=P(O)(O)Oc1cccc2[nH]cc(CCN3CCC3)c12 [Compound 5, 3-(2-(azetidin-1-yl)ethyl)-1H-indol-4-yl dihydrogen phosphate] |  |  |  |  |  |  |  |  |  |  |  | stability compared with Compound 2 [8]: more stable than Compound 2; hydrolysis of the ester to Compound 2 as active metabolite [9]: rapidly hydrolyzed
6 | COc1ccc2[nH]cc(CCN(C)C)c2c1 [Compound 5-MeO-DMT, reference compound] | 106% |  | 17.6% |  | 100% | 0.3% | 91.2% | 102 µL/min/mg | 0.24 h | >4.818 h | 0.227 h | 
7 | CN(C)CCc1c[nH]c2ccccc12 [DMT, N,N-dimethyltryptamine, reference compound] | 93.4% |  | 10.4% |  | 68.1% | 0.0% | 0.0% | 199 µL/min/mg | 0.085 h | 0.107 h | 0.117 h | 
8 | COc1cc(CC(C)N)c(OC)cc1I (stereo not shown) [DOI, 4-iodo-2,5-dimethoxyamphetamine, reference compound] |  |  |  |  |  |  |  |  |  |  |  | maximal effect in the HTR assay [4]: 35.6 head twitches/20 min
9 | CCN(C)CCc1c[nH]c2ccccc12 [MET, N-ethyl-2-(1H-indol-3-yl)-N-methylethan-1-amine, reference compound] | 36.2% | > 100 µM | 22.5% | 89.4 µM | 73.6% |  |  |  |  |  |  | EC50 [1]: 0.0171 µM; 5-HT2C % Act @ Max Dose [10]: 89.7%; EC50 [10]: 0.0283 µM
10 | CN(C)CCc1c[nH]c2cccc(O)c12 [Psilocin, psilocin, reference compound] |  |  | 1.44% | 5.26 µM | 66.4% | 46.1% | 97.6% | 127 µL/min/mg | 1.913 h | >4.818 h | 1.828 h | 
